{
  "source": "PubChem BioAssay (NCI)",
  "test_system": "P388 leukemia",
  "assay": "NCI tumour cell line growth inhibition, 48 h",
  "note": "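A five-concentration, 48-hour dose response in 96-well plates underlies each endpoint, interpolated linearly between surrounding concentrations. TGI denotes the concentration required for complete inhibition of growth.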",
  "data": [
    {"smiles": "O=c1n(CC2CO2)c(=O)n(CC2CO2)c(=O)n1CC1CO1", "note": "(stereo unspecified)", "values": [
      {"measurement": "TGI", "value": 122, "unit": "µM"}
    ]}
  ]
}
